According to publication PMC12396409, “Screening and hit evaluation of a microbial metabolite library against the pathogenic Plasmodium falciparum and Toxoplasma gondii parasites” (International Journal for Parasitology: Drugs and Drug …, 2025):
Where two headings read alike, the source gives them in different places. Where a SMILES comes first, the peptide text is derived from it. Bridges are numbered along the chain shown (N, C = ends). [ ]: non-standard residue; d: D form. The star is where a group is joined. Ileψ(thiazoline)Cys = CC[C@H](C)[C@H](N)C1=N[C@H](C(=O)*)CS1; dOrn = NCCC[C@@H](N)C(=O)O

Legend:
[1] = tested on: P. falciparum 3D7 parasites; assay: P. falciparum growth inhibition assay, 1-cycle (72 h treatment), SYBR DNA staining (library screen at 2 μg/mL and dose-response); assay type: cell-based, Plasmodium falciparum; settings: for Pf_72h_%Growth_Rep1 / Pf_72h_%Growth_Rep2 / activity at 2 µg/mL: % growth; for activity at 2 µg/mL: Plasmodium falciparum, 3D7
[2] = tested on: P. falciparum 3D7 parasites; assay: P. falciparum growth inhibition assay, 2-cycle (120 h treatment), delayed-death screen and dose-response; assay type: cell-based, Plasmodium falciparum; settings: % growth; for activity at 2 µg/mL: Plasmodium falciparum, 3D7
[3] = tested on: T. gondii RH strain (RH-Tub-eYFP) tachyzoites; assay: microbe, parasite or virus in culture; assay type: cell-based, Toxoplasma gondii; settings: 72 h, % growth; for percent parasite growth at 2 µg/mL: Toxoplasma gondii
[4] = P. falciparum 3D7, 72 h, parasite screen at 2 μg/mL, replicate 1
[5] = P. falciparum 3D7, 72 h, parasite screen at 2 μg/mL, replicate 2
[6] = P. falciparum 3D7, 120 h, parasite screen at 2 μg/mL, replicate 1
[7] = P. falciparum 3D7, 120 h, parasite screen at 2 μg/mL, replicate 2
[8] = T. gondii, parasite screen at 2 μg/mL, replicate 1
[9] = T. gondii, parasite screen at 2 μg/mL, replicate 2
[10] = library screen at 2 μg/mL, 72 h, replicate 1, read-out: Pf_72h_%Growth_Rep1
[11] = library screen at 2 μg/mL, 72 h, replicate 2, read-out: Pf_72h_%Growth_Rep2
[12] = library screen at 2 μg/mL, 120 h, replicate 1, read-out: Pf_120h_%Growth_Rep1
[13] = library screen at 2 μg/mL, 120 h, replicate 2, read-out: Pf_120h_%Growth_Rep2
[14] = library screen at 2 μg/mL, replicate 1, read-out: Tg_72h_%Growth_Rep1
[15] = library screen at 2 μg/mL, replicate 2, read-out: Tg_72h_%Growth_Rep2
[16] = library screen at 2 μg/mL, 72 h, replicate 1
[17] = library screen at 2 μg/mL, 72 h, replicate 2
[18] = library screen at 2 μg/mL, 120 h, replicate 1
[19] = library screen at 2 μg/mL, 120 h, replicate 2
[20] = library screen at 2 μg/mL, replicate 1
[21] = library screen at 2 μg/mL, replicate 2

SMILES | Pf_72h_%Growth_Rep1 [1, 16] [%] | Pf_72h_%Growth_Rep2 [1, 17] [%] | Pf_120h_%Growth_Rep1 [2, 18] [%] | Pf_120h_%Growth_Rep2 [2, 19] [%] | Tg_72h_%Growth_Rep1 [3, 20] [%] | Tg_72h_%Growth_Rep2 [3, 21] [%] | also measured
CCC1C=C(C)CC(C)CC(OC)C2OC(O)(C(=O)C(=O)N3CCCCC3C(=O)OC(C(C)=CC3CCC(Cl)C(OC)C3)C(C)C(O)CC1=O)C(C)CC2OC (stereo not shown) [BIA-P1385] | – | – | – | – | – | – | Pf_72h_%Growth_Rep1 [1, 4]: 6.43%; Pf_72h_%Growth_Rep2 [1, 5]: 7.66%; Pf_120h_%Growth_Rep1 [2, 6]: 11.40%; Pf_120h_%Growth_Rep2 [2, 7]: 13.77%; Tg_72h_%Growth_Rep1 [3, 8]: 65.99%; Tg_72h_%Growth_Rep2 [3, 9]: 84.21%
CC[C@@H]1CCN[C@H](C(=O)N[C@@H]([C@H]2O[C@H](SC)[C@H](O)[C@@H](O)[C@H]2O)[C@H](C)Cl)C1 [BIA-P1459] | – | – | – | – | – | – | Pf_72h_%Growth_Rep1 [1, 4]: 26.60%; Pf_72h_%Growth_Rep2 [1, 5]: 41.09%; Pf_120h_%Growth_Rep1 [2, 6]: 9.76%; Pf_120h_%Growth_Rep2 [2, 7]: 125.61%; Tg_72h_%Growth_Rep1 [3, 8]: 8.37%; Tg_72h_%Growth_Rep2 [3, 9]: 23.25%
CN(C)[C@@H]1C(=O)C(C(=O)NCN2CCN(CCO)CC2)=C(O)[C@@]2(O)C(=O)C3=C(O)c4c(O)cccc4[C@@](C)(O)[C@H]3C[C@@H]12 [BIA-P1473] | – | – | – | – | – | – | Pf_72h_%Growth_Rep1 [1, 4]: 83.77%; Pf_72h_%Growth_Rep2 [1, 5]: 98.47%; Pf_120h_%Growth_Rep1 [2, 6]: 88.47%; Pf_120h_%Growth_Rep2 [2, 7]: 132.29%; Tg_72h_%Growth_Rep1 [3, 8]: 118.64%; Tg_72h_%Growth_Rep2 [3, 9]: 93.61%
CC[C@H](C)[C@H](N)C1=N[C@H](C(=O)N[C@@H](CC(C)C)C(=O)N[C@H](CCC(=O)O)C(=O)N[C@H](C(=O)N[C@H]2CCCCNC(=O)[C@H](CC(N)=O)NC(=O)[C@@H](CC(=O)O)NC(=O)[C@H](Cc3cnc[nH]3)NC(=O)[C@@H](Cc3ccccc3)NC(=O)[C@H]([C@@H](C)CC)NC(=O)[C@@H](CCCN)NC2=O)[C@@H](C)CC)CS1 [Bacitracin A] ({Ileψ(thiazoline)Cys}-L[dE]IK[dOrn]I[dF]H[dD]N; lactam 4-C) | – | – | – | – | – | – | activity at 2 µg/mL [1, 10]: 27.2%; activity at 2 µg/mL [1, 11]: 89.3%; activity at 2 µg/mL [2, 12]: 59.9%; activity at 2 µg/mL [2, 13]: 94.6%; percent parasite growth at 2 µg/mL [3, 14]: 81.4%; percent parasite growth at 2 µg/mL [3, 15]: 89.8%
CO/C1=C\C(C)=C\[C@@H](C)[C@@H](O)[C@@H](C)C/C(C)=C/C=C/[C@H](OC)[C@@H]([C@@H](C)[C@@H](O)[C@H](C)[C@@]2(O)C[C@@H](O)[C@H](C)[C@@H](C(C)C)O2)OC1=O [Bafilomycin A1] | – | – | – | – | – | – | activity at 2 µg/mL [1, 10]: 3.38%; activity at 2 µg/mL [1, 11]: 2.45%; activity at 2 µg/mL [2, 12]: 5.49%; activity at 2 µg/mL [2, 13]: 9.47%; percent parasite growth at 2 µg/mL [3, 14]: -1.58%; percent parasite growth at 2 µg/mL [3, 15]: 0.71%
CO/C1=C\C(C)=C\[C@@H](C)[C@@H](O)[C@@H](C)C/C(C)=C/C=C/[C@H](OC)[C@@H]([C@@H](C)[C@@H](O)[C@H](C)[C@@]2(O)C[C@@H](OC(=O)/C=C/C(=O)NC3=C(O)CCC3=O)[C@H](C)[C@@H](C(C)C)O2)OC1=O [Bafilomycin B1] | 2.46 | 1.87 | 5.87 | 11.47 | -0.95 | 0.68 | –
CO/C1=C\C(C)=C\C(C)C(O)C(C)C/C(C)=C/C=C/C(OC)C(C(C)C(O)C(C)C2(O)CC(OC(=O)/C=C/C(=O)O)C(C)C(C(C)C)O2)OC1=O (stereo not shown) [Bafilomycin C1] | 1.92 | 0.47 | 3.53 | -2.55 | -0.73 | -0.13 | –
COc1cc(O)c2c(c1C)C(C)C(O)(CO)OC2=O (stereo not shown) [Banksialactone A] | 70.20 | 86.53 | 148.50 | 82.39 | 101.56 | 97.07 | –
CC(C)C[C@H]1C(=O)O[C@H](C(C)C)C(=O)N(C)[C@@H](CC(C)C)C(=O)O[C@H](C(C)C)C(=O)N(C)[C@@H](CC(C)C)C(=O)O[C@H](C(C)C)C(=O)N(C)[C@@H](CC(C)C)C(=O)O[C@H](C(C)C)C(=O)N1C [Bassianolide] | 6.97 | 5.23 | 10.85 | -3.01 | 78.43 | 93.64 | –
CN1C(=O)c2ccccc2-n2c(nc3ccccc3c2=O)[C@@H]1Cc1ccccc1 [Benzomalvin A] | 68.69 | 85.94 | 152.22 | 94.98 | 76.13 | 90.69 | –
CN1C(=O)c2ccccc2-n2c(nc3ccccc3c2=O)/C1=C\c1ccccc1 [Benzomalvin B] | 1.98 | 79.80 | 2.26 | 61.47 | 108.53 | 82.96 | Mean ([1]; P. falciparum, 72 h, 2 μg/mL, mean of both replicates, growth (% of control)): 40.89
CN1C(=O)c2ccccc2-n2c(nc3ccccc3c2=O)[C@@]12O[C@H]2c1ccccc1 [Benzomalvin C] | 80.29 | 84.20 | 69.94 | 71.59 | 89.14 | 100.15 | –
C[C@H]1OC(=O)C=C[C@@H](O)[C@@H](O)CCCCCCCC[C@@H]1O [Berkeleylactone F] | 78.45 | 83.14 | 146.18 | 96.20 | 83.11 | 88.17 | –
C=C(NC(=O)C(=C)NC(=O)c1ccc2c(n1)-c1coc(n1)C(=C)NC(=O)C(=C)NC(=O)c1nc(oc1C)C(=C)NC(=O)[C@H](C(C)(C)O)NC(=O)C(=C)NC(=O)c1nc(oc1C)/C(=C/C)NC(=O)[C@H]([C@@H](C)O)NC(=O)c1csc-2n1)C(N)=O [Berninamycin A] | 102.47 | 88.00 | 140.98 | 104.87 | 80.20 | 95.18 | –
C=C1NC(=O)c2nc(oc2C)C(=C)NC(=O)[C@H](C(C)(C)O)NC(=O)C(=C)NC(=O)c2nc(oc2C)/C(=C/C)NC(=O)[C@H]([C@@H](C)O)NC(=O)c2csc(n2)-c2ccc(C(N)=O)nc2-c2coc(n2)C(=C)NC1=O [Berninamycin D] | 102.21 | 89.93 | 147.66 | 98.89 | 81.74 | 94.54 | –
CC(C)C[C@H](NC(=O)[C@@H](O)[C@H](N)Cc1ccccc1)C(=O)O [Bestatin] | – | – | – | – | – | – | activity at 2 µg/mL [1, 10]: 10.9%; activity at 2 µg/mL [1, 11]: 3.89%; activity at 2 µg/mL [2, 12]: 3.72%; activity at 2 µg/mL [2, 13]: 8.03%; percent parasite growth at 2 µg/mL [3, 14]: 89.8%; percent parasite growth at 2 µg/mL [3, 15]: 102%
C=C(C)[C@@H]1CC[C@]2(C(=O)OC)CC[C@]3(C)[C@H](CC[C@@H]4[C@@]5(C)CC[C@H](O)C(C)(C)[C@@H]5CC[C@]43C)[C@@H]12 [Betulinate, Methyl] | 96.31 | 86.01 | 150.46 | 92.78 | 84.95 | 84.36 | –
C=C(C)[C@@H]1CC[C@]2(C(=O)O)CC[C@]3(C)[C@H](CC[C@@H]4[C@@]5(C)CC[C@H](O)C(C)(C)[C@@H]5CC[C@]43C)[C@@H]12 [Betulinic acid] | – | – | – | – | – | – | activity at 2 µg/mL [1, 10]: 73.8%; activity at 2 µg/mL [1, 11]: 76.9%; activity at 2 µg/mL [2, 12]: 70.3%; activity at 2 µg/mL [2, 13]: 59.9%; percent parasite growth at 2 µg/mL [3, 14]: 107%; percent parasite growth at 2 µg/mL [3, 15]: 88%
